The source of these data is patent US4431807A, “4-Methyl-5-(unsubstituted and substituted phenoxy)-6-methoxy-8-(aminoalkylamino)quinolines” (priority 1981, dated 1984).

Each structure is given as a SMILES string.

The subject of one series is Plasmodium cynomolgi. The series can be described thus: Radical curative (tissue schizonticidal) test, SEATO, P. cynomolgi, rhesus monkey. Type of series: in vivo, Plasmodium cynomolgi (strain B) in Indian rhesus monkeys. The protocol:
Radical Curative Test in Rhesus Monkeys, SEATO Medical Research Laboratory, Bangkok, John Brown/Richard Andre
This test is designed to evaluate the tissue schizonticidal (radical curative) activity of test compounds. Well-conditioned Indian rhesus monkeys of either sex weighing 2-4 Kg are utilized. Plasmodium cynomolgi (strain B) sporozoites are prepared by grinding heavily infected Anopheles dirus salivary glands in 1:1 monkey serum-saline vehicle.
Monkeys are infected by I.V. injection of 10^6 freshly isolated P. cynomolgi sporozoites on day 0. A rapidly rising parasitemia develops after a 7-9 day prepatent period, and administration of the test drug is initiated when the rising parasite count exceeds 5000 per mm^3 (typically day 10-12). Test drugs are administered orally (by nasogastric intubation) once daily for 7 consecutive days in aqueous solution or, if insoluble, in suspension in 0.3% methylcellulose solution. Chloroquine diphosphate (3.1 mg/kg base/kg orally per day) is always administered concurrently with the test drug for 7 days to eliminate blood schizonts. Thus any tissue schizonticidal activity of the test drug will always be apparent even if it lacks blood schizonticidal activity.
A vehicle control monkey and a positive drug control (primaquine) monkey are included in each group of inoculated monkeys.
The effect of the test drug is determined by counting blood parasites. Parasite counts are made daily through day 20, and every two days thereafter. Initially a clearance of blood parasites is observed due to the blood schizonticidal action of chloroquine. […] If there is no relapse within 20 days of the initial clearance of parasitemia, the monkey is splenectomized and its parasitemia followed for an additional 30 days. If there is no relapse within this period, the experiment is terminated and the monkey is considered "cured".
Primaquine diphosphate cures over 90% of monkeys in this test system when administered at a dose of 1.3 mg/kg of salt per day for 7 days ([…]) in combination with chloroquine.
The antimalarial activity data acquired by the two test procedures described above are listed in Tables 2 and 3 for the compounds of this invention. In Table 4, the most promising compound of the series, compound 1, is compared directly with primaquine together with some additional test data for compound 1 compared to primaquine. In all the work reported herein primaquine is used in the form of the diphosphate salt. The test data are expressed in the form of the number of cures at a given dose level. Extension of life (mean survival time) relative to the controls is noted in the Rane mouse test; if the mean survival time is extended seven or more days, the compound is considered to be active.
The Molar Primaquine Index is useful in the radical curative test (Table II) as a gauge of the efficacy of a candidate drug relative to primaquine.

The next series has as its system P. cynomolgi. The series can be described thus: SEATO suppressive test, P. cynomolgi, rhesus monkey (parasitized blood inoculation, no chloroquine). Type of series: in vivo, P. cynomolgi in rhesus monkey. The protocol: Equally significant is the suppressive activity comparison (Part A-2) in the Rhesus monkey. This test differs from the SEATO radical curative test primarily in that parasitemia is induced by intravenous inoculation of parasitized blood (rather than sporozoites) and that chloroquine is not co-administered with the test drug. […] On the other hand, compound 1 is curative at doses down to 1.0 mg/kg/day.

Series [1] can be described thus: Acute oral toxicity, rats.
The nature of series [2]: Acute oral toxicity, mice.
A short description of series [3]: Acute oral toxicity, guinea pigs.

Usually LD50 stands for the dose at which mortality reaches 50%. With `COc1cc(NC(C)CCCN)c2ncccc2c1` (centres unmarked) [Primaquine Diphosphate, 8-((4-amino-1-methylbutyl)amino)-6-methoxy-quinoline, reference compound], the Radical curative activity result in the series with Plasmodium cynomolgi (0.316 mg/kg/day) is “inactive”. Moreover, the “Radical curative test, cures” value with Plasmodium cynomolgi (1.0 mg/kg salt, oral, × 7 days, Table IV B-1) was 1/2. Further, the Monkeys cured result in the series with Plasmodium cynomolgi (1.3 mg/kg of salt per day for 7 days (1.0 mg/kg free base) with chloroquine) was “over 90%”. For the same compound, in the series on P. cynomolgi (all doses, oral, × 7 days), the “Cures, suppressive test in rhesus” value was “No Cures”. Further, the “Suppressive activity in the rhesus” value in the series with P. cynomolgi (in words) is “failed to clear the blood schizonts completely”. The median lethal dose (LD50) in series [1] (rat, in vivo, po) came out at 224 mg/kg; in series [2] (mouse, in vivo, po), 148 mg/kg; in series [3] (guinea pig, in vivo, po) it was 54 mg/kg. In addition, the “Acute Oral LD50” value in series [1] (rats, male) is recorded as 177 mg/kg.

For the compound `COc1cc(NC(C)CCCN)c2nccc(C)c2c1Oc1cccc(C(F)(F)F)c1.O=C(O)CCC(=O)O` (centres unmarked) [Compound 1, 8-(4-Amino-1-methylbutylamino)-6-methoxy-4-methyl-5-(3-trifluoromethylphenoxy)quinoline Succinate], the “% curative (radical curative)” value in the series with Plasmodium cynomolgi (0.316 mg/kg/day) is reported as 100%. In addition, the “Radical curative activity relative to primaquine” value in the series on Plasmodium cynomolgi (in words) is listed as “markedly superior to primaquine”. The “Molar Primaquine Index CD 100” value in the series with Plasmodium cynomolgi (primaquine CD100 dose / drug CD100 dose, in moles) stood at 4.8. For the same compound, the minimal effective dose with P. cynomolgi (Plasmodium cynomolgi, in Macaca mulatta, po, curative at doses down to, read-out: Lowest curative dose, suppressive test in rhesus) came to 1 mg/kg/day. Moreover, the “LD50 ratio Compound 1/Primaquine” value in series [1] (rats, female) was 2.76; in series [1] (rats, male) it was 1.46; in series [2] (mice, male), 1.59; in series [3] (guinea pigs, male), 3.22.
